Data from paper PMC9071130, “Functional analysis of LFRFamide signaling in Pacific abalone, Haliotis discus hannai” (PLoS ONE, 2022).

Legend:
Hdh-sNPFR [1] = experiment: SRE-Luc reporter activation in Hdh-sNPFR-transfected HEK293 cells; assay type: cell-based, Haliotis discus hannai; details: peptide 10^−6 M, 6 h, n = 3
Experimental: (§1) HEK293 cells were grown in monolayer culture in Dulbecco’s modified Eagle medium (Gibco, Loughborough, UK) with 10% fetal bovine serum (HyClone, GE Healthcare, Chicago, IL, USA) and 1% penicillin/streptomycin (Invitrogen, Carlsbad, CA, USA) at 37°C, 5% CO2. HEK293 cells were seeded in 24-well plates and the transfection was performed using a formulated polyethylenimine solution (Sigma-Aldrich, St. Louis, MO, USA) as previously described. […] The cells were harvested with a cell lysis buffer (Promega, Madison, WI, USA) and luciferase activities were assayed using a microplate luminometer (Berthold, Bad Wildbad, Germany) and normalized by β-galactosidase values detected on a microplate reader (Tecan, Männedorf, Switzerland) at 405 nm.
(§2) Fig 5 Effect of LFRFa peptides on luciferase reporter activities in Hdh-sNPFR-expressing HEK293 cells. […] Intracellular cAMP accumulation was measured by CRE-Luc reporter activities in Hdh-sNPFR- or maternal plasmid pcDNA3-transfected HEK293 cells. The relative activities were determined in response to 10^−5 M of FKN and 10^−6 M of peptide as indicated. […]

Hdh-sNPFR [2] = experiment: CRE-Luc reporter activation in Hdh-sNPFR-transfected HEK293 cells; assay type: cell-based, Haliotis discus hannai; details: peptide 10^−6 M, 6 h, no forskolin, n = 3
Experimental: as §1, §2

Pacific abalone = details: injection of NPF peptide; earlier paper of the authors; cited from earlier work
Excerpt: Along with insect sNPFs, LFRFa peptides convert feeding motor programs from ingestive to egestive, depress feeding muscle contractions in Aplysia californica, and increase rectal contractions in Sepia officinalis.

Hdh-sNPFR [3] = experiment: Internalization of HA-tagged Hdh-sNPFR in HEK293 cells (immunocytochemistry, confocal microscopy); assay type: cell-based, Haliotis discus hannai; details: HEK293 cells with HA-tagged Hdh-sNPFR; peptide 10^−6 M; 5 and 30 min
Experimental: To detect Hdh-sNPFR expression, HEK293 cells were seeded on poly-D-lysine hydrobromide (Sigma-Aldrich)-coated coverslips in 24-well plates. The Hdh-sNPFR expression plasmid was transfected into HEK293 cells as described above. At approximately 30 h post-transfection, the cells were treated with LFRFa peptides and NPF for 5 min and 30 min, respectively. The cells were fixed with 4% paraformaldehyde for 10 min, followed by treatment with 1% bovine serum albumin in phosphate-buffered saline with 0.1% Tween 20 (PBST) for 30 min at room temperature to block non-specific binding. The HEK293 cells were treated with a monoclonal HA primary antibody (1:5000 dilution; H9658, Sigma-Aldrich) in PBST at 4°C for 16 h. After washing with PBST three times for 10 min each, the cells were treated with a secondary antibody [anti-mouse IgG (H+L), F(ab’)2Fragment (AlexaFluor 488 Conjugate), 1:2000 dilution; Cell Signaling, Danvers, MA, USA] in PBST at room temperature for 1 h in a light-blocked chamber. After washing with PBST three times for 10 min each, the cells were mounted with a mounting medium including DAPI (Abcam, Cambridge, UK). The expression of Hdh-sNPFR was monitored with a confocal laser-scanning microscope (FV3000, Olympus, Tokyo, Japan).
Fig 7 Subcellular localization and internalization of Hdh-sNPFR. […]

QDAMLAPPDRPSEFRSPDQLRQYLKALNEYYAIVGRPRF-NH2 [NPF, Pacific abalone neuropeptide F, 39 amino acids, amidated, used as comparison peptide]
Activation of SRE-Luc reporter (Hdh-sNPFR [1]): did not activate
Activation of CRE-Luc reporter (Hdh-sNPFR [2]): did not activate
Food consumption in Pacific abalone after NPF injection (Pacific abalone): increased food consumption
Internalization of Hdh-sNPFR from cell membrane to cytoplasm (Hdh-sNPFR [3]): did not undergo redistribution from the cell surface to the cytoplasm
